Experimental data reported in patent publication US4351948A, “Imidazole hydrazone derivatives” (priority 1980, dated 1982).
pIC50: −log10 of the molar value. Counter-ions that a name gives are not always drawn. Like-named read-outs stand apart in the source and are kept apart here.

Legend:
[1] = system: platelet thromboxane generation; experiment: Inhibition of platelet thromboxane generation (TxB2, collagen-stimulated human platelet rich plasma); type: cell-based; details: 10 min, read-out: Activity IC50 (50% inhibition of TxB2 generation)
Protocol: The compounds used according to the invention as anti-thrombotics were tested by the following method for their ability to inhibit platelet thromboxane generation.
Human venous blood was collected from healthy male donors, who had denied any medication in the previous 14 days. Nine volumes of blood were mixed with one volume of 3.24% trisodium citrate. The citrated blood was centrifuged at 160 g for 10 mins. at 22° C. to obtain platelet rich plasma (PRP). The platelets were then counted on a Coulter counter, and the platelet count was adjusted to 200,000 per μl with plasma.
The PRP was then dispensed as aliquots into micro-Eppendorf tubes, maintained at 37° C. in a dry bath. The compounds dissolved either in saline, ethanol, or DMSO were added in duplicate to the PRP aliquots to produce final concentrations of 0.3, 3 and 30 μg/ml. When ethanol and DMSO were used as the vehicle, triplicate controls containing the same percentage of vehicle as the test compounds were made. The final concentration or organic solvent was never more than 0.1%, which in previous experiments had no effect on TxB2 generation.
Following a 10 min. incubation with test compounds or vehicle, collagen was added to produce a final concentration of 8 μg/ml. The tubes were then whirly-mixed for 15 seconds and replaced in the dry bath for a further 10 minutes, controls received saline instead of collagen. The reaction was then stopped by rapid centrifugation, 15,000 g for 3 mins. The plasma was removed and frozen at -29° C. until assayed.
Briefly, 100 μl aliquots, in tricine buffered saline+0.8% gelatin (pH 8.0) of the following were incubated together for 1 hour at 37° C.: thromboxane Tx B2 (plasma extract, spiked plasma extract or standards 20 to 20,000 pg/ml), ^3 H--TxB2 (approximately 15,000 dpm) and anti-TxB2 antiserum (0.5 μg/100 μl). The free and protein bound ^3 H--TxB2 were separated by ammonium sulphate precipitation followed by centrifugation. 300 μl of the supernatant was added to an aqueous scintillation fluid, and the radioactivity present was counted in a liquid scintillation counter. The binding of ^3 H--TxB2 in the absence of added TxB2 was approximately 55%. The least amount of TxB2 to be detected accurately in the plasma was 0.08 ng/ml. Cross reactivity with other prostaglandins is less than 0.005% except PGD2 which is 1%.
Thus plasma samples were assayed to give a rough approximation of TxB2 content. The plasma was then appropriately diluted and assayed in duplicate to give accurate values.
The amount of TxB2 generated by the collagen was calculated by subtracting mean values obtained for the saline stimulated platelets from the mean values obtained from the collagen stimulated platelets. Then the amount of TxB2 generated in the presence of each concentration of compound was expressed as a % control and dose response curves were then constructed to determine the concentration of compound which produced a 50% inhibition.

in vivo = details: male mice, 7 day; for LD12.5: p.o.
C. sporogenes ATCC 19404 = experiment: Antianaerobic activity, MIC by standard broth dilution method (Table II); type: cell-based; details: Clostridium sporogenes, ATCC19404, 24 h, read-out: Minimal Inhibitory Concentration (MIC)
Protocol: (§1) The activity of the compounds identified in the Table II below was tested for antianaerobic activity against one strain of Bacteroides fragilis, one strain of Bacteroides uniformis, one strain of Clostridium sporogenes and one strain of Trichomonas vaginalis as the test organism. The methods used involved determining the minimum inhibitory concentration by the standard broth dilution method. The values for metronidazole (2-methyl-5-nitro-1H-imidazole-1-ethanol) are given above for reference purposes. For convenience the compounds are referred to by an internal reference number (an HC number) and this is correlated with the number of the Example wherein its production is described.

T. vaginalis ATCC 30001 = experiment: as above; type: cell-based; details: Trichomonas vaginalis, ATCC30001, 24 h, read-out: Minimal Inhibitory Concentration (MIC)
Protocol: as §1, with “The values for metronidazole (2-methyl-5-nitro-1H-imidazole-1-ethanol) are given above for reference purposes.” left out

B. fragilis ATCC 23745 = experiment: as above; type: cell-based; details: Bacteroides fragilis, ATCC23745, 24 h, read-out: Minimal Inhibitory Concentration (MIC)
Protocol: as §1, with “The values for metronidazole (2-methyl-5-nitro-1H-imidazole-1-ethanol) are given above for reference purposes.” left out

B. uniformis ATCC 8492 = experiment: as above; type: cell-based; details: Bacteroides uniformis, ATCC8492, 24 h, read-out: Minimal Inhibitory Concentration (MIC)
Protocol: as §1, with “The values for metronidazole (2-methyl-5-nitro-1H-imidazole-1-ethanol) are given above for reference purposes.” left out

[2] = collagen 8 μg/ml, human PRP, 10 min. incubation, 37° C.

pIC50 [1, 2] | Compound | MIC (C. sporogenes ATCC 19404; Test 1) | MIC (C. sporogenes ATCC 19404; Test 2) | MIC (C. sporogenes ATCC 19404; Test 3) | MIC (T. vaginalis ATCC 30001; Test 2) | MIC (T. vaginalis ATCC 30001; Test 3) | MIC (B. fragilis ATCC 23745; Test 1) | MIC (B. fragilis ATCC 23745; Test 2) | MIC (B. fragilis ATCC 23745; Test 3) | MIC (B. uniformis ATCC 8492; Test 1) | MIC (B. uniformis ATCC 8492; Test 2) | MIC (B. uniformis ATCC 8492; Test 3) | also measured
5.26 | Fc1ccccc1C(Cn1ccnc1)=NNc1ccc(Cl)cc1Cl [HC 426, 1-(2-fluorophenyl)-2-(1H-imidazol-1-yl)ethanone, 2,4-dichlorophenylhydrazone, hydrochloride] | – | – | – | – | – | – | – | – | – | – | – | –
– | C[C@@H]1[C@H](O)[C@@H](C)/C=C/C=C/C=C/C=C/C=C/C=C/C=C/[C@H](O[C@@H]2O[C@H](C)[C@@H](O)[C@H](N)[C@@H]2O)C[C@@H]2O[C@](O)(C[C@@H](O)C[C@@H](O)[C@H](O)CC[C@@H](O)C[C@@H](O)CC(=O)O[C@H]1C)C[C@H](O)[C@H]2C(=O)O [Amphotericin B] | – | – | – | – | – | – | – | – | – | – | – | LD12.5 (in vivo): 280 mg/kg
– | O=[N+]([O-])c1ccc(NN=C(Cn2ccnc2)c2ccccc2Cl)c([N+](=O)[O-])c1 [HC 336, 1-(2-chlorophenyl)-2-(1H-imidazol-1-yl) ethanone, 2,4-dinitrophenylhydrazone, hydrochloride] | – | – | – | – | – | – | – | – | – | – | – | pIC50 ([1]; Homo sapiens): 6.05
< 4.10 | Clc1ccc(/C(Cn2ccnc2)=N\Nc2ccccc2Cl)cc1 [HC 500, (E)-1-(4-chlorophenyl)-2-(1H-imidazol-1-yl)ethanone, 2-chlorophenylhydrazone, hydrochloride] | – | – | – | – | – | – | – | – | – | – | – | –
4.68 | FC(F)(F)c1ccccc1C(Cn1ccnc1)=NNc1c(Cl)cccc1Cl [HC 418, 1-(2-trifluoromethylphenyl)-2-(1H-imidazol-1-yl)ethanone, 2,6-dichlorophenylhydrazone, hydrochloride] | – | – | – | – | – | – | – | – | – | – | – | –
– | O=[N+]([O-])c1cccc(C(Cn2ccnc2)=NNc2c(Cl)cccc2Cl)c1 [HC 402, 1-(3-nitrophenyl)-2-(1H-imidazol-1-yl)ethanone, 2,6-dichlorophenylhydrazone, hydrochloride] | – | – | – | – | – | – | – | – | – | – | – | pIC50 ([1]; Homo sapiens): 6.15
5.57 | Clc1ccc(C(Cn2ccnc2)=NNc2cc(Cl)cc(Cl)c2)cc1 [HC 346, 1-(4-chlorophenyl)-2-(1H-imidazol-1-yl) ethanone, 3,5-dichlorophenylhydrazone] | – | – | – | – | – | – | – | – | – | – | – | –
5.31 | Clc1ccc(C(Cn2ccnc2)=NNc2ccccc2)cc1 [HC 290, 1-(4-Chlorophenyl)-2-(1H-imidazol-1-yl)ethanone, phenylhydrazone, hydrochloride] | – | – | – | – | – | – | – | – | – | – | – | –
5.57 | Clc1ccc(C(Cn2ccnc2)=NNc2c(Cl)cccc2Cl)c(Cl)c1 [HC 377, 1-(2,4-dichlorophenyl)-2-(1H-imidazol-1-yl)ethanone, 2,6-dichlorophenylhydrazone, hydrochloride] | – | – | – | – | – | – | – | – | – | – | – | –
– | Clc1ccc(NN=C(Cn2ccnc2)c2ccc(Cl)cc2Cl)c(Cl)c1 [HC-380, 1-(2,4-dichlorophenyl)-2-(1H-imidazol-1-yl) ethanone, 2,4-dichlorophenylhydrazone, hydrochloride] | 10 µg/mL | 2.5 µg/mL | 2.5 µg/mL | 25 µg/mL | 25 µg/mL | 10 µg/mL | 2.5 µg/mL | 2.5 µg/mL | 10 µg/mL | 2.5 µg/mL | 2.5 µg/mL | MIC (T. vaginalis ATCC 30001; Test 1): 50 µg/mL
– | Clc1ccc(NN=C(Cn2ccnc2)c2cc(Cl)ccc2Cl)c(Cl)c1 [HC-525, 1-(2,5-dichlorophenyl)-2-(1H-imidazol-1-yl) ethanone, 2,4-dichlorophenylhydrazone, hydrochloride] | 2.5 µg/mL | 2.5 µg/mL | 2.5 µg/mL | 50 µg/mL | 50 µg/mL | 2.5 µg/mL | 2.5 µg/mL | 2.5 µg/mL | 2.5 µg/mL | 2.5 µg/mL | 2.5 µg/mL | MIC (T. vaginalis ATCC 30001; Test 1): 50 µg/mL
– | CC(C(=NNc1c(Cl)cc(Cl)cc1Cl)c1ccc(Cl)cc1)n1ccnc1 (stereo not shown) [HC-561, 1-(4-chlorophenyl)-2-(1H-imidazol-1-yl)propanone, 2,4,6-trichlorophenylhydrazone, hydrochloride] | 1 µg/mL | 1 µg/mL | 1 µg/mL | > 100 µg/mL | > 100 µg/mL | 1 µg/mL | 2.5 µg/mL | 5 µg/mL | 5 µg/mL | 7.5 µg/mL | 7.5 µg/mL | MIC (T. vaginalis ATCC 30001; Test 1): > 100 µg/mL
6.10 | Clc1cccc(Cl)c1NN=C(Cn1ccnc1)c1ccccc1 [HC 368, 1-phenyl-2-(1H-imidazol-1-yl)ethanone, 2,6-dichlorophenylhydrazone, hydrochloride] | – | – | – | – | – | – | – | – | – | – | – | –
– | Cl.FC(F)(F)c1cccc(C(Cn2ccnc2)=NNc2c(Cl)cccc2Cl)c1 [HC474, 1-(3-trifluoromethylphenyl)-2-(1H-imidazol-1-yl)ethanone, 2,6-dichlorophenylhydrazone, hydrochloride] | 7.5 µg/mL | 5 µg/mL | 5 µg/mL | 50 µg/mL | 50 µg/mL | 5 µg/mL | 7.5 µg/mL | 7.5 µg/mL | 10 µg/mL | 5 µg/mL | 7.5 µg/mL | –
– | Clc1ccc(NN=C(Cn2ccnc2)c2ccc(Br)cc2)c(Cl)c1 [HC-378, 1-(4-bromophenyl)-2-(1H-imidazol-1-yl) ethanone, 2,4-dichlorophenylhydrazone, hydrochloride] | 50 µg/mL | 25 µg/mL | 25 µg/mL | > 50 µg/mL | 50 µg/mL | 10 µg/mL | 2.5 µg/mL | 2.5 µg/mL | 10 µg/mL | 2.5 µg/mL | 5 µg/mL | MIC (T. vaginalis ATCC 30001; Test 1): > 50 µg/mL
4.86 | N#Cc1ccc(C(Cn2ccnc2)=NNc2c(Cl)cccc2Cl)cc1 [HC 416, 1-(4-cyanophenyl)-2-(1H-imidazol-1-yl)ethanone, 2,6-dichlorophenylhydrazone, hydrochloride] | – | – | – | – | – | – | – | – | – | – | – | –
5.44 | Clc1ccccc1C(Cn1ccnc1)=NNc1c(Cl)cccc1Cl [HC 365, 1-(2-chlorophenyl)-2-(1H-imidazol-1-yl)ethanone, 2,6-dichlorophenylhydrazone, hydrochloride] | – | – | – | – | – | – | – | – | – | – | – | –
– | Nc1nc(=O)[nH]cc1F [5-Fluorocytosine] | – | – | – | – | – | – | – | – | – | – | – | LD50 at 168 h (in vivo; mouse, in vivo, iv, read-out: LD50): 500 mg/kg; LD12.5 (in vivo): 500 mg/kg
– | Cl.Clc1ccc(NN=C(Cn2ccnc2)c2ccccc2)c(Cl)c1 [HC-306, 1-Phenyl-2-(1H-imidazol-1-yl)ethanone, 2,4-dichlorophenylhydrazone, hydrochloride] | 10 µg/mL | 2.5 µg/mL | 2.5 µg/mL | 50 µg/mL | 25 µg/mL | 10 µg/mL | 2.5 µg/mL | 2.5 µg/mL | 10 µg/mL | 2.5 µg/mL | 2.5 µg/mL | MIC (T. vaginalis ATCC 30001; Test 1): 50 µg/mL
